Assay results as given in patent publication US10604554B2, “Double-acylated GLP-1 derivatives” (Novo Nordisk A/S, priority 2012, dated 2020).

Assays:
human GLP-1 receptor [1] = target: T1, human GLP-1 receptor (Homo sapiens, UniProt P43220); test: In vitro potency (CRE luciferase; whole cells); type: cell-based; parameters: EC50/pM (ratio 1% HSA/0% HSA): unit not given here; conditions: for EC50: BHK cells
T1 construct: expressed in transfected cells; host or cells: BHK cells, clone FCW467-12A/KZ10-1 (parent line BHKTS13), further transfected with CRE luciferase
T1 sequence (P43220 24-463): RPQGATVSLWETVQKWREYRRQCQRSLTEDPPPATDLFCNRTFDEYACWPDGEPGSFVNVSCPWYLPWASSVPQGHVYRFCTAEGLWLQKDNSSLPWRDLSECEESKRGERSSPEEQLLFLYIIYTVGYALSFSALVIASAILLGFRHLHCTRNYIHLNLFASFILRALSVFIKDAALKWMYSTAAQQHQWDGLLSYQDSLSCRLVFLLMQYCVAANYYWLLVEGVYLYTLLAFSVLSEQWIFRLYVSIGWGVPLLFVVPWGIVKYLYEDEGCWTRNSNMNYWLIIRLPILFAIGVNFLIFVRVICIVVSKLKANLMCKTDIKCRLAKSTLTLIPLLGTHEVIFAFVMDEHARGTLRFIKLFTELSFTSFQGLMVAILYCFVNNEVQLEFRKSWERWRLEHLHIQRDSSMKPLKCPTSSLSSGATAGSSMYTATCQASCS
In short: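 Reporter: CRE-luciferase in BHK cells stably expressing human GLP-1R, 5×10^3 cells/well; compounds tested in buffer containing 0% or 1% HSA.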

human GLP-1 receptor [2] = target: T1, human GLP-1 receptor; test: GLP-1 receptor binding (SPA, displacement of 125I-GLP-1)
In short: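 Tracer [125I]-GLP-1(7-36)NH2 at 0.06 nM final competed on hamster stably transfected cell membranes captured by WGA SPA beads; 120 min, 30 °C, scintillation count.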

[3] = In vitro potency (CRE luciferase) EC50 (0% HSA), 0% HSA
[4] = In vitro potency (CRE luciferase) EC50 (1% HSA), 1% HSA
[5] = Receptor binding affinity IC50 (high HSA), 2.0% HSA (high albumin)
[6] = Receptor binding affinity IC50 (low HSA), 0.001% HSA (low albumin)

For `CC[C@H](C)[C@H](NC(=O)[C@H](Cc1ccccc1)NC(=O)[C@H](CCC(=O)O)NC(=O)[C@H](CCCCNC(=O)[C@@H](N)CCCCNC(=O)[C@@H](N)CCCCNC(=O)COCCOCCNC(=O)COCCOCCNC(=O)CC[C@H](NC(=O)CCCCCCCCCCOc1ccc(C(=O)O)cc1)C(=O)O)NC(=O)[C@H](C)NC(=O)[C@H](C)NC(=O)[C@H](CCC(N)=O)NC(=O)CNC(=O)[C@H](CCC(=O)O)NC(=O)[C@H](CC(C)C)NC(=O)[C@H](Cc1ccc(O)cc1)NC(=O)[C@H](CO)NC(=O)[C@H](CO)NC(=O)[C@@H](NC(=O)[C@H](CC(=O)O)NC(=O)[C@H](CO)NC(=O)[C@@H](NC(=O)[C@H](Cc1ccccc1)NC(=O)[C@@H](NC(=O)CNC(=O)[C@H](CCC(=O)O)NC(=O)C(C)(C)NC(=O)[C@@H](N)Cc1c[nH]cn1)[C@@H](C)O)[C@@H](C)O)C(C)C)C(=O)N[C@@H](C)C(=O)N[C@@H](Cc1c[nH]c2ccccc12)C(=O)N[C@@H](CC(C)C)C(=O)N[C@H](C(=O)N[C@@H](CCCNC(=N)N)C(=O)NCC(=O)N[C@@H](CCCNC(=N)N)C(=O)N[C@@H](CCCCNC(=O)[C@@H](N)CCCCNC(=O)[C@@H](N)CCCCNC(=O)COCCOCCNC(=O)COCCOCCNC(=O)CC[C@H](NC(=O)CCCCCCCCCCOc1ccc(C(=O)O)cc1)C(=O)O)C(=O)O)C(C)C` [Example 33], the EC50 (human GLP-1 receptor [1]; [3]) was 0.0074 nM, the EC50 (human GLP-1 receptor [1]; [4]) was 0.069 nM and the “EC50/pM (ratio 1% HSA/0% HSA)” value (human GLP-1 receptor [1]; ratio of EC50 at 1% HSA to EC50 at 0% HSA) was 11. It also gave an IC50 (human GLP-1 receptor [2]; [5]) of 33 nM and an IC50 (human GLP-1 receptor [2]; [6]) of 0.31 nM.
Compound `CC[C@H](C)[C@H](NC(=O)[C@H](Cc1ccccc1)NC(=O)[C@H](CCC(=O)O)NC(=O)[C@H](CCCCNC(=O)[C@@H](N)CCCCNC(=O)CC[C@H](NC(=O)CC[C@H](NC(=O)CCCCCCCCCCOc1ccc(C(=O)O)cc1)C(=O)O)C(=O)O)NC(=O)[C@H](C)NC(=O)[C@H](C)NC(=O)[C@H](CCC(N)=O)NC(=O)CNC(=O)[C@H](CCC(=O)O)NC(=O)[C@H](CC(C)C)NC(=O)[C@H](Cc1ccc(O)cc1)NC(=O)[C@H](CO)NC(=O)[C@H](CO)NC(=O)[C@@H](NC(=O)[C@H](CC(=O)O)NC(=O)[C@H](CO)NC(=O)[C@@H](NC(=O)[C@H](Cc1ccccc1)NC(=O)[C@@H](NC(=O)CNC(=O)[C@H](CCC(=O)O)NC(=O)C(C)(C)NC(=O)[C@@H](N)Cc1c[nH]cn1)[C@@H](C)O)[C@@H](C)O)C(C)C)C(=O)N[C@@H](C)C(=O)N[C@@H](Cc1c[nH]c2ccccc12)C(=O)N[C@@H](CC(C)C)C(=O)N[C@H](C(=O)N[C@@H](CCCNC(=N)N)C(=O)NCC(=O)N[C@@H](CCCNC(=N)N)C(=O)N[C@@H](CCCCNC(=O)[C@@H](N)CCCCNC(=O)CC[C@H](NC(=O)CC[C@H](NC(=O)CCCCCCCCCCOc1ccc(C(=O)O)cc1)C(=O)O)C(=O)O)C(=O)O)C(C)C` [Example 40, N^ε26-[(2S)-2-amino-6-[[(4S)-4-carboxy-4-[[(4S)-4-carboxy-4-[11-(4-carboxyphenoxy)undecanoylamino]butanoyl]amino]butanoyl]amino]hexanoyl], N^ε37-[(2S)-2-amino-6-[[(4S)-4-carboxy-4-[[(4S)-4-carboxy-4-[11-(4-carboxyphenoxy)undecanoylamino]butanoyl]amino]butanoyl]amino]hexanoyl]-[Aib^8,Arg^34,Lys^37]-GLP-1-(7-37)-peptide] has an EC50 (human GLP-1 receptor [1]; [3]) of 0.0026 nM, an IC50 (human GLP-1 receptor [2]; [5]) of 195 nM and an IC50 (human GLP-1 receptor [2]; [6]) of 0.03 nM.
`CC[C@H](C)[C@H](NC(=O)[C@H](Cc1ccccc1)NC(=O)[C@H](CCC(=O)O)NC(=O)[C@H](CCCCNC(=O)[C@@H](N)CCCCNC(=O)[C@@H](N)CCCCNC(=O)[C@H](CO)NC(=O)[C@H](CO)NC(=O)CC[C@H](NC(=O)CCCCCCCCCCOc1ccc(C(=O)O)cc1)C(=O)O)NC(=O)[C@H](C)NC(=O)[C@H](C)NC(=O)[C@H](CCC(N)=O)NC(=O)CNC(=O)[C@H](CCC(=O)O)NC(=O)[C@H](CC(C)C)NC(=O)[C@H](Cc1ccc(O)cc1)NC(=O)[C@H](CO)NC(=O)[C@H](CO)NC(=O)[C@@H](NC(=O)[C@H](CC(=O)O)NC(=O)[C@H](CO)NC(=O)[C@@H](NC(=O)[C@H](Cc1ccccc1)NC(=O)[C@@H](NC(=O)CNC(=O)[C@H](CCC(=O)O)NC(=O)C(C)(C)NC(=O)[C@@H](N)Cc1c[nH]cn1)[C@@H](C)O)[C@@H](C)O)C(C)C)C(=O)N[C@@H](C)C(=O)N[C@@H](Cc1c[nH]c2ccccc12)C(=O)N[C@@H](CC(C)C)C(=O)N[C@H](C(=O)N[C@@H](CCCNC(=N)N)C(=O)NCC(=O)N[C@@H](CCCNC(=N)N)C(=O)N[C@@H](CCCCNC(=O)[C@@H](N)CCCCNC(=O)[C@@H](N)CCCCNC(=O)[C@H](CO)NC(=O)[C@H](CO)NC(=O)CC[C@H](NC(=O)CCCCCCCCCCOc1ccc(C(=O)O)cc1)C(=O)O)C(=O)O)C(C)C` [Example 35] gave an EC50 (human GLP-1 receptor [1]; [3]) of 0.0055 nM, an IC50 (human GLP-1 receptor [2]; [5]) of 36 nM and an IC50 (human GLP-1 receptor [2]; [6]) of 0.08 nM.
In the case of `CC[C@H](C)[C@H](NC(=O)[C@H](Cc1ccccc1)NC(=O)[C@H](CCC(=O)O)NC(=O)[C@H](CCCCNC(=O)[C@H](CCCCNC(=O)[C@H](CCCCNC(=O)CC[C@H](NC(=O)CCCCCCCCCCOc1ccc(C(=O)O)cc1)C(=O)O)N(C)C)N(C)C)NC(=O)[C@H](C)NC(=O)[C@H](C)NC(=O)[C@H](CCC(N)=O)NC(=O)CNC(=O)[C@H](CCC(=O)O)NC(=O)[C@H](CC(C)C)NC(=O)[C@H](Cc1ccc(O)cc1)NC(=O)[C@H](CO)NC(=O)[C@H](CO)NC(=O)[C@@H](NC(=O)[C@H](CC(=O)O)NC(=O)[C@H](CO)NC(=O)[C@@H](NC(=O)[C@H](Cc1ccccc1)NC(=O)[C@@H](NC(=O)CNC(=O)[C@H](CCC(=O)O)NC(=O)C(C)(C)NC(=O)[C@@H](N)Cc1c[nH]cn1)[C@@H](C)O)[C@@H](C)O)C(C)C)C(=O)N[C@@H](C)C(=O)N[C@@H](Cc1c[nH]c2ccccc12)C(=O)N[C@@H](CC(C)C)C(=O)N[C@H](C(=O)N[C@@H](CCCNC(=N)N)C(=O)NCC(=O)N[C@@H](CCCNC(=N)N)C(=O)N[C@@H](CCCCNC(=O)[C@H](CCCCNC(=O)[C@H](CCCCNC(=O)CC[C@H](NC(=O)CCCCCCCCCCOc1ccc(C(=O)O)cc1)C(=O)O)N(C)C)N(C)C)C(=O)O)C(C)C` [Example 37, N^ε26-[(2S)-6-[[(2S)-6-[[(4S)-4-carboxy-4-[11-(4-carboxyphenoxy)undecanoylamino]butanoyl]amino]-2-(dimethylamino)hexanoyl]amino]-2-(dimethylamino)hexanoyl], N^ε37-[(2S)-6-[[(2S)-6-[[(4S)-4-carboxy-4-[11-(4-carboxyphenoxy)undecanoylamino]butanoyl]amino]-2-(dimethylamino)hexanoyl]amino]-2-(dimethylamino)hexanoyl]-[Aib^8,Arg^34,Lys^37]-GLP-1-(7-37)-peptide], the EC50 (human GLP-1 receptor [1]; [4]) is reported as 0.093 nM and the IC50 (human GLP-1 receptor [2]; [5]) is reported as 24 nM.
